In US8420823B2, “Long-chain fatty acyl elongase inhibitor comprising arylsulfonyl derivative as active ingredient” (MSD K.K., priority 2008, dated 2013) one finds IC50 data, which are given here for 39 compounds.

pIC50: −log10 of the molar value. Counter-ions that a name gives are not always drawn.

The target in the test is T1, human LCE (Homo sapiens, UniProt Q9H5J4).
T1 sequence (Q9H5J4 1-265): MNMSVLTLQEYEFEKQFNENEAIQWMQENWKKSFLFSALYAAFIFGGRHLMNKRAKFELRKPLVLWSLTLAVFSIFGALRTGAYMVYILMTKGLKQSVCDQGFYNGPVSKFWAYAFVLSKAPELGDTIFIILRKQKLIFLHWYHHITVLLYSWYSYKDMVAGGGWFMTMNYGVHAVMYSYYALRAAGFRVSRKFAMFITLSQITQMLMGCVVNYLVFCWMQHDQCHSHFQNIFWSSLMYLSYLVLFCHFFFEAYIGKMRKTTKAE
Put plainly: LCE enzyme activity-inhibitory test. Conditions: [14C]-malonyl CoA / palmitoyl CoA substrate, 37° C., 90 minutes. It counts as biochemical. The method, boiled down: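 Human LCE (100 μg/mL in enzyme solution) was incubated 90 min at 37 °C in 100 mM potassium phosphate pH 6.5 with palmitoyl CoA, malonyl CoA, [14C]-malonyl CoA, rotenone and fatty acid-free BSA. Acid-stopped, hydrolyzed products were captured on GF/C filters and counted by scintillation. Inhibition was calculated against DMSO control.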
The term pIC50 denotes −log10 of the IC50, conventionally taken in molar units. A lower pIC50 goes with a high IC50. The compound `O=C(Nc1ccccc1)c1cccc(S(=O)(=O)N2CCCCC2)c1` [Example 88, N-phenyl-3-(piperidin-1-ylsulfonyl)benzamide] showed a negative-log IC50 (pIC50) of 5.66.
The figure for `CC(C)Oc1ccc(NC(=O)c2cccc(S(=O)(=O)N3CCCC(c4nncn4C)C3)c2)cc1` (stereo not drawn) [Example 11, N-(4-isopropoxyphenyl)-3-{[3-(4-methyl-4H-1,2,4-triazol-3-yl)piperidin-1-yl]sulfonyl}benzamide trifluoroacetate] is 6.00; for `CC(C)Oc1ccc(NC(=O)c2cccc(S(=O)(=O)N3CC4CC5CC(C4)CC3C5)c2)cc1` [Example 4, 3-(4-Azatricyclo[4.3.1.1^3,8]undec-4-ylsulfonyl)-N-(4-isopropoxyphenyl)benzamide] it is 5.29.
`CC(C)c1ccc(NC(=O)c2cccc(S(=O)(=O)N3CCCC(O)C3)c2)cc1` (stereo not drawn) [Example 32, 3-[(3-Hydroxypiperidin-1-yl)sulfonyl]-N-(4-isopropylphenyl)benzamide] gave a pIC50 of 7.00.
The figure for `CCCCOc1cc(NC(=O)c2cccc(S(=O)(=O)c3ccccn3)c2)[nH]n1` [Example 119, N-(3-butoxy-1H-pyrazol-5-yl)-3-(pyridin-2-ylsulfonyl)benzamide] is 8.22.
The figure for `O=C(Nc1cc(C2CC2)n[nH]1)c1cccc(S(=O)(=O)N2CCCCC2)c1` [Example 105, N-(3-cyclopropyl-1H-pyrazol-5-yl)-3-(piperidin-1-ylsulfonyl)benzamide] is 7.08; for `CC(C)Oc1cc(NC(=O)c2cccc(S(=O)(=O)N3CCCC(CO)C3)c2)[nH]n1` (stereo not drawn) [Example 65, 5-[(3-{[3-(hydroxymethyl)piperidin-1-yl]sulfonyl}benzoyl)amino]-3-isopropoxy-1H-pyrazole hydrochloride] it is 8.23.
The figure for `O=C(Nc1cc(C2CC2)n[nH]1)c1cccc(S(=O)(=O)N2CCCC2)c1` [Example 115, N-(3-cyclopropyl-1H-pyrazol-5-yl)-3-(pyrrolidin-1-ylsulfonyl)benzamide] is 6.51; for `O=C(Nc1ccc(OC2CCCC2)cc1F)c1cccc(S(=O)(=O)c2ccccn2)c1` [Example 125, N-[4-(cyclopentyloxy)-2-fluorophenyl]-3-(pyridin-2-ylsulfonyl)benzamide] it is 6.62; for `CC(C)Oc1ccc(NC(=O)c2cccc(S(=O)(=O)c3cccnc3)c2)cc1` [Example 130, N-(4-isopropoxyphenyl)-3-(pyridin-3-ylsulfonyl)benzamide] it is 5.82.
As for `COc1ccc(NC(=O)c2cccc(S(=O)(=O)N3CCCCC3)c2)c(OC)n1` [Example 96, N-(2,6-dimethoxypyridin-3-yl)-3-(piperidin-1-ylsulfonyl)benzamide], the pIC50 is 6.49.
Consider `COc1cccnc1NC(=O)c1cccc(S(=O)(=O)N2CCCC(C(=O)OCc3ccccc3)C2)c1` (stereo not drawn) [Example 62, Benzyl 1-[(3-{[(3-methoxypyridin-2-yl)amino]carbonyl}phenyl)sulfonyl]piperidine-3-carboxylate], for which the pIC50 was 7.03.
The figure for `CC(C)Oc1ccc(NC(=O)c2cccc(S(=O)(=O)C3CCCCC3)c2)cc1` [Example 144, 3-(Cyclohexylsulfonyl)-N-(4-isopropoxyphenyl)benzamide] is 7.13; for `O=C(NC1CCc2ccccc21)c1cccc(S(=O)(=O)N2CCCCC2)c1` (stereo not drawn) [Example 85, N-(2,3-dihydro-1H-inden-1-yl)-3-(piperidin-1-ylsulfonyl)benzamide] it is 5.22.
The figure for `N#Cc1nc[nH]c1NC(=O)c1cccc(S(=O)(=O)N2CCCCC2)c1` [Example 114, N-(4-cyano-1H-imidazol-5-yl)-3-(piperidin-1-ylsulfonyl)benzamide] is 5.55; for `CC(C)Oc1ccc(NC(=O)c2cc(S(=O)(=O)N3CCCCC3)ccc2O)cc1` [Example 151, 2-Hydroxy-N-(4-isopropoxyphenyl)-5-(piperidin-1-ylsulfonyl)benzamide] it is 5.44; for `CC(C)Oc1ccc(NC(=O)c2cccc(S(=O)(=O)N3CCCC(C(N)=O)C3)c2)nc1` (stereo not drawn) [Example 58, 1-[(3-{[(5-Isopropoxypyridin-2-yl)amino]carbonyl}phenyl)sulfonyl]piperidine-3-carboxamide] it is 6.80.
For `COc1cccc(NC(=O)c2cccc(S(=O)(=O)N3CCCCC3)c2)c1` [Example 81, N-(3-methoxyphenyl)-3-(piperidin-1-ylsulfonyl)benzamide], the pIC50 is 5.72.
The value for `COc1ccc(C(=O)Nc2ccc(C(C)C)cc2)cc1S(=O)(=O)N1CCCCC1` [Example 155, N-(4-isopropylphenyl)-4-methoxy-3-(piperidin-1-ylsulfonyl)benzamide] was 5.24; that for `CCOC(=O)C1CCCN(S(=O)(=O)c2cccc(C(=O)Nc3ncccc3OC)c2)C1` (stereo not drawn) [Example 55, Ethyl 1-[(3-{[(3-methoxypyridin-2-yl)amino]carbonyl}phenyl)sulfonyl]piperidine-3-carboxylate] was 6.51; that for `CC(C)Oc1ccc(NC(=O)c2cccc(S(=O)(=O)N3CCCC(c4nc5ccccc5[nH]4)C3)c2)cc1` (stereo not drawn) [Example 5, 3-{[3-(1H-benzimidazol-2-yl)piperidin-1-yl]sulfonyl}-N-(4-isopropoxyphenyl)benzamide] was 7.52.
The figure for `CC(C)c1ccc(NC(=O)c2cccc(S(=O)(=O)c3ccc(F)cc3)c2)cc1` [Example 137, 3-[(4-fluorophenyl)sulfonyl]-N-(4-isopropylphenyl)benzamide] is 6.16.
The figure for `COc1cccnc1NC(=O)c1cccc(S(=O)(=O)N2CCCCC2)c1` [Example 99, N-(3-methoxypyridin-2-yl)-3-(piperidin-1-ylsulfonyl)benzamide] is 7.44; for `COc1ccc(NC(=O)c2cccc(S(=O)(=O)N3CCCCC3)c2)cc1` [Example 46, N-(4-methoxyphenyl)-3-(piperidin-1-ylsulfonyl)benzamide] it is 6.10; for `CC(C)Oc1ccc(NC(=O)c2cccc(S(=O)(=O)c3ncccn3)c2)nc1` [Example 138, N-(5-isopropoxypyridin-2-yl)-3-(pyrimidin-2-ylsulfonyl)benzamide] it is 6.62.
Regarding `COc1ccc(NC(=O)c2cccc(S(=O)(=O)N3CCCCC3)c2)cn1` [Example 102, N-(6-methoxypyridin-3-yl)-3-(piperidin-1-ylsulfonyl)benzamide], the pIC50 was 5.47. This pIC50 lies 1.15 log units lower than the previous one.
The value for `CC(C)c1ccc(NC(=O)c2cccc(S(=O)(=O)N3CCCC(CO)C3)c2)cc1` (stereo not drawn) [Example 37, 3-{[3-(hydroxymethyl)piperidin-1-yl]sulfonyl}-N-(4-isopropylphenyl)benzamide] was 7.18.
On to `CC(C)Oc1cc(NC(=O)c2cccc(S(=O)(=O)N3CCC(F)CC3)c2)[nH]n1` [Example 67, 5-({3-[(4-fluoropiperidin-1-yl)sulfonyl]benzoyl}amino)-3-isopropoxy-1H-pyrazole hydrochloride], for which the pIC50 was 8.00.
The figure for `CC(C)Oc1ccc(NC(=O)c2cccc(S(=O)(=O)N3CCc4[nH]ncc4C3)c2)cc1` [Example 3, N-(4-isopropoxyphenyl)-3-(1,4,6,7-tetrahydro-5H-pyrazolo[4,3-c]pyridin-5-ylsulfonyl)benzamide trifluoroacetate] is 5.13; for `CC(C)Oc1cc(NC(=O)c2cccc(S(=O)(=O)N3CCCC3)c2)[nH]n1` [Example 70, N-(3-isopropoxy-1H-pyrazol-5-yl)-3-(pyrrolidin-1-ylsulfonyl)benzamide hydrochloride] it is 8.17; for `COc1ccccc1NC(=O)c1cccc(S(=O)(=O)N2CCC[C@@H](O)C2)c1` [Example 41, 3-{[(3R)-3-hydroxypiperidin-1-yl]sulfonyl}-N-(2-methoxyphenyl)benzamide] it is 5.29.
The figure for `CSc1ccc(NC(=O)c2cccc(S(=O)(=O)N3CCCCC3)c2)cc1` [Example 79, N-[4-(methylthio)phenyl]-3-(piperidin-1-ylsulfonyl)benzamide] is 5.66.
In turn, `COc1cccnc1NC(=O)c1cccc(S(=O)(=O)N2C[C@H]3C[C@@H]2CO3)c1` [Example 53, N-(3-methoxypyridin-2-yl)-3-[(1R,4R)-2-oxa-5-azabicyclo[2.2.1]hept-5-ylsulfonyl]benzamide] showed a negative-log IC50 (pIC50) of 5.12.
Consider `CC(C)c1ccc(NC(=O)c2cccc(S(=O)(=O)N3CCCCCC3)c2)cc1` [Example 27, 3-(Azepan-1-ylsulfonyl)-N-(4-isopropylphenyl)benzamide], for which the negative-log IC50 (pIC50) is 6.72.
In the case of `CC(C)c1ccc(NC(=O)c2cccc(S(=O)(=O)Nc3ccccc3)c2)cc1` [Example 39, 3-(Anilinosulfonyl)-N-(4-isopropylphenyl)benzamide], the pIC50 is 5.28.
The value for `COc1cccnc1NC(=O)c1cccc(S(=O)(=O)N2CCCC(c3nc4ccccc4[nH]3)C2)c1` (stereo not drawn) [Example 50, 3-{[3-(1H-benzimidazol-2-yl)piperidin-1-yl]sulfonyl}-N-(3-methoxypyridin-2-yl)benzamide] was 7.28.
The value for `COc1ccccc1NC(=O)c1cccc(S(=O)(=O)N2CCCC(CO)C2)c1` (stereo not drawn) [Example 42, 3-{[3-(hydroxymethyl)piperidin-1-yl]sulfonyl}-N-(2-methoxyphenyl)benzamide] was 6.30; that for `CC(C)Oc1ccc(NC(=O)c2cccc(S(=O)(=O)c3ncccn3)c2)cc1` [Example 139, N-(4-isopropoxyphenyl)-3-(pyrimidin-2-ylsulfonyl)benzamide] was 6.89; that for `COc1ccccc1NC(=O)c1cccc(S(=O)(=O)c2ccccc2)c1` [Example 134, N-(2-methoxyphenyl)-3-(phenylsulfonyl)benzamide] was 6.38.
